# Assay results taken from patent publication US20220047569A1, “METHOD AND COMPOUND FOR USE, IN TREATING AND/OR PREVENTING NETOSIS” (Jubilant EpiPad LLC, priority 2020, published 2022).
# Structures can show the parent of a compound that is named as a salt.
# Test system: Histone H3 Citrullination in Neutrophils
# Test: Citrullination ELISA (Citrullinated Histone H3) in calcium ionophore stimulated neutrophils
# Assay type: cell-based
# Settings: Neutrophil; human neutrophils, 25 μM calcium ionophore, CitH3 ELISA
# Procedure: Neutrophils were isolated according to the EasySep Direct Human Neutrophil Isolation Kit. In short, 50 mL of blood sample was drawn in a vacutainer containing K2EDTA from a healthy donor. To the whole blood, the isolation cocktail of 50 μL/mL was added. Then, in the next step 50 μL/mL of RapidSpheres™ was added to the sample. The sample was mixed evenly with the pipette and incubated for 10 minutes at room temperature. After incubation, PBS containing 1 mM EDTA was added at the ratio of 1:1 to the blood. Then the sample tube was incubated for 10 minutes. The enriched cell suspension was transferred into a new tube and RapidSpheres™ were added at 50 μL/mL to this suspension, mixed and incubated for 10 minutes at room temperature. At this step, the enriched cell suspension was carefully collected as a clear fraction into a fresh tube. Then, previous tube was replaced with the fresh tube containing enriched cell suspension. After the final separation, the clear solution of enriched cell suspension was carefully transferred to fresh tube which was ready to use for the experiment. These cells were then subjected to wash twice with plain RPMI 1640 media without Fetal Bovine Serum (FBS) and centrifuged at 1500 rpm for 5 minutes at room temperature. Cell counts were performed on each sample by Invitrogen cell counter. After the cell count, cell density was adjusted according to the experiment and re-suspended in complete RPMI media containing RPMI1640, 2% BSA and 1 mM CaCl2.
# Freshly isolated neutrophils from human donor were seeded at a density of 0.5×10^6 cells in 400 μL cell suspension/well in a 24-well plate and cells were pre-incubated with the compound for 30 minutes by adding 50 μL of the 10× concentration to achieve the final 1× concentration of compound (10 μM, 1 μM and 0.1 μM). 1% DMSO was added in control wells. Then, the cells were stimulated in the presence and absence of calcium ionophore by adding 50 μL/well to achieve the final concentration of 25 μM. Upon incubation for 30 minutes with calcium ionophore, S7 nuclease was added to the wells and incubated for 10 minutes to disrupt NET DNA. Following incubation, 10 μL of 1 mM EDTA was added to inactivate nuclease. Cells were scrapped gently and transferred to the tubes, followed by centrifugation at 1500 rpm for 5 minutes. After centrifugation, supernatant was discarded, and 200 μL of lysis buffer containing PBS and 1× Protease inhibitor was added to the tubes. The obtained lysis was then subjected to mechanical shearing using Geno grinder by spin the plate at 2500 rpm for 10 minutes, followed by collection of supernatant and stored at −20° C. or immediately used for ELISA.
# ELISA was performed as per Citrullinated Histone H3 ELISA Kit. All the buffer components from the kit were dissolved according to the manufactures protocol. ELISA Buffer Concentrate (10×) (Item No. 400060) and Wash Buffer Concentrate (400×) (Item No. 400060) along with polysorbate 20 (2000×) (Item No. 400035) was diluted to 1× with milliQ water. The standard for use in the ELISA was prepared as follows: • Obtain eight clean test tubes and label them, #1 through #8. Aliquot 4.9 mL of ELISA Buffer into tube #1. • Aliquot 500 μL of ELISA Buffer into the tubes #2-8. […] This tube is considered as blank, the lowest point on the standard curve.
# 100 μL of standards or diluted sample was added to the appropriate wells on the 96-well plate. Plates were covered with 96-well cover sheet and incubated for two hours at room temperature on an orbital shaker. The samples and standard were removed from the wells and washed four times with Wash Buffer. After the last wash, Anti-Histone H3 HRP Conjugate (Item No. 501441) (10×) stock solution was diluted in 1×ELISA buffer and 100 μL of the HRP Conjugate working solution was added to each well of the plate and incubated for one hour at room temperature on an orbital shaker. […]
row,Structure (SMILES),IC50 [µM]
1,"N[C@@H]1CCCN(C(=O)c2cc3c4c(c2)nc(-c2cc5ccccc5n2Cc2ccccc2)n4CCO3)C1 [Compound 104, (R)-(3-aminopiperidin-1-yl)(2-(1-benzyl-1H-indol-2-yl)-3,4-dihydro-5-oxa-1,2a-diazaacenaphthylen-7-yl)methanone]",0.1 to 1
2,"COc1ccc(Cn2c(-c3nc4cc(C(=O)N5CCC[C@@H](N)C5)cc5c4n3CCO5)cc3ccccc32)cc1 [Compound 105, (R)-(3-aminopiperidin-1-yl)(2-(1-(4-methoxybenzyl)-1H-indol-2-yl)-3,4-dihydro-5-oxa-1,2a-diazaacenaphthylen-7-yl)methanone]",0.1 to 1
3,"COCCn1c(-c2nc3cc(C(=O)N4CCC[C@@H](N)C4)cc4c3n2CCO4)cc2ccccc21 [Compound 106, (R)-(3-aminopiperidin-1-yl)(2-(1-(2-methoxyethyl)-1H-indol-2-yl)-3,4-dihydro-5-oxa-1,2a-diazaacenaphthylen-7-yl)methanone]",0.1 to 1
4,"COCCn1c(-c2nc3cc(C(=O)N4CCC[C@@H](N)C4)cc4c3n2CCO4)cc2ccc(OC)cc21 [Compound 107, (R)-(3-aminopiperidin-1-yl)(2-(6-methoxy-1-(2-methoxyethyl)-1H-indol-2-yl)-3,4-dihydro-5-oxa-1,2a-diazaacenaphthylen-7-yl)methanone]",0.1 to 1
5,"COc1ccc2cc(-c3nc4cc(C(=O)N5CCC[C@@H](N)C5)cc5c4n3CCO5)n(CC3CC3)c2c1 [Compound 109, (R)-(3-aminopiperidin-1-yl)(2-(1-(cyclopropylmethyl)-6-methoxy-1H-indol-2-yl)-3,4-dihydro-5-oxa-1,2a-diazaacenaphthylen-7-yl)methanone]",0.1 to 1
6,"N[C@@H]1CCCN(C(=O)c2cc3c4c(c2)nc(-c2cc5ccccc5n2Cc2ccncc2F)n4CCO3)C1 [Compound 110, (R)-(3-aminopiperidin-1-yl)(2-(1-((3-fluoropyridin-4-yl)methyl)-1H-indol-2-yl)-3,4-dihydro-5-oxa-1,2a-diazaacenaphthylen-7-yl)methanone]",< 0.1
7,"N[C@@H]1CCCN(C(=O)c2cc3c4c(c2)nc(-c2cc5ccccc5n2Cc2cnccn2)n4CCO3)C1 [Compound 111, (R)-(3-aminopiperidin-1-yl)(2-(1-(pyrazin-2-ylmethyl)-1H-indol-2-yl)-3,4-dihydro-5-oxa-1,2a-diazaacenaphthylen-7-yl)methanone]",0.1 to 1
8,"N[C@@H]1CCCN(C(=O)c2cc3c4c(c2)nc(-c2cc5ccccc5n2Cc2ncccc2F)n4CCO3)C1 [Compound 112, (R)-(3-aminopiperidin-1-yl)(2-(1-((3-fluoropyridin-2-yl)methyl)-1H-indol-2-yl)-3,4-dihydro-5-oxa-1,2a-diazaacenaphthylen-7-yl)methanone]",< 0.1
9,"N[C@@H]1CCCN(C(=O)c2cc3c4c(c2)nc(-c2cc5ccccc5n2Cc2ncccn2)n4CCO3)C1 [Compound 113, (R)-(3-aminopiperidin-1-yl)(2-(1-(pyrimidin-2-ylmethyl)-1H-indol-2-yl)-3,4-dihydro-5-oxa-1,2a-diazaacenaphthylen-7-yl)methanone]",< 0.1
10,"N[C@@H]1CCCN(C(=O)c2cc3c4c(c2)nc(-c2cc5ccc(F)cc5n2CC2CC2)n4CCO3)C1 [Compound 114, (R)-(3-aminopiperidin-1-yl)(2-(1-(cyclopropylmethyl)-6-fluoro-1H-indol-2-yl)-3,4-dihydro-5-oxa-1,2a-diazaacenaphthylen-7-yl)methanone]",< 0.1
11,"CC(C)Cn1c(-c2nc3cc(C(=O)N4CCC[C@@H](N)C4)cc4c3n2CCO4)cc2ccccc21 [Compound 117, (R)-(3-aminopiperidin-1-yl)(2-(1-isobutyl-1H-indol-2-yl)-3,4-dihydro-5-oxa-1,2a-diazaacenaphthylen-7-yl)methanone]",0.1 to 1
12,"COc1ccc2cc(-c3nc4cc(C(=O)N5CCC[C@@H](N)C5)cc5c4n3CCO5)n(Cc3ncccc3F)c2c1 [Compound 119, (R)-(3-aminopiperidin-1-yl)(2-(1-((3-fluoropyridin-2-yl)methyl)-6-methoxy-1H-indol-2-yl)-3,4-dihydro-5-oxa-1,2a-diazaacenaphthylen-7-yl)methanone]",0.1 to 1
13,"N[C@@H]1CCCN(C(=O)c2cc3c4c(c2)nc(-c2cc5cccc(Cl)c5n2Cc2ncccc2F)n4CCO3)C1 [Compound 120, (R)-(3-aminopiperidin-1-yl)(2-(7-chloro-1-((3-fluoropyridin-2-yl)methyl)-1H-indol-2-yl)-3,4-dihydro-5-oxa-1,2a-diazaacenaphthylen-7-yl)methanone]",0.1 to 1

# Further lines, results first:
row,IC50 [µM],Structure (SMILES)
1,> 1,"N[C@@H]1CCCN(C(=O)c2cc3c4c(c2)nc(-c2cc5ccc(F)cc5n2Cc2ncccc2F)n4CCO3)C1 [Compound 121, (R)-(3-aminopiperidin-1-yl)(2-(6-fluoro-1-((3-fluoropyridin-2-yl)methyl)-1H-indol-2-yl)-3,4-dihydro-5-oxa-1,2a-diazaacenaphthylen-7-yl)methanone]"
2,0.1 to 1,"COCCn1c(-c2nc3cc(C(=O)N4CCC[C@@H](N)C4)cc4c3n2CCO4)cc2cccc(Cl)c21 [Compound 122, (R)-(3-aminopiperidin-1-yl)(2-(7-chloro-1-(2-methoxyethyl)-1H-indol-2-yl)-3,4-dihydro-5-oxa-1,2a-diazaacenaphthylen-7-yl)methanone]"
3,0.1 to 1,"N[C@@H]1CCCN(C(=O)c2cc3c4c(c2)nc(-c2cc5ccccc5n2Cc2ccc(CO)cc2)n4CCO3)C1 [Compound 123, (R)-(3-aminopiperidin-1-yl)(2-(1-(4-(hydroxymethyl)benzyl)-1H-indol-2-yl)-3,4-dihydro-5-oxa-1,2a-diazaacenaphthylen-7-yl)methanone trifluoroacetic acid salt]"
4,< 0.1,"COc1ccc(Cn2c(-c3nc4cc(C(=O)N5CCC[C@@H](N)C5)cc5c4n3CCO5)cc3cccc(Cl)c32)cc1 [Compound 125, (R)-(3-aminopiperidin-1-yl)(2-(7-chloro-1-(4-methoxybenzyl)-1H-indol-2-yl)-3,4-dihydro-5-oxa-1,2a-diazaacenaphthylen-7-yl)methanone]"
5,> 1,"N[C@@H]1CCCN(C(=O)c2cc3c4c(c2)nc(-c2cc5ccccc5n2CC2CCOCC2)n4CCO3)C1 [Compound 126, (R)-(3-aminopiperidin-1-yl)(2-(1-((tetrahydro-2H-pyran-4-yl)methyl)-1H-indol-2-yl)-3,4-dihydro-5-oxa-1,2a-diazaacenaphthylen-7-yl)methanone]"
6,0.1 to 1,"N[C@@H]1CCCN(C(=O)c2cc3c4c(c2)nc(-c2cc5ccccc5n2CC2CCC2)n4CCO3)C1 [Compound 127, (R)-(3-aminopiperidin-1-yl)(2-(1-(cyclobutylmethyl)-1H-indol-2-yl)-3,4-dihydro-5-oxa-1,2a-diazaacenaphthylen-7-yl)methanone]"
7,> 1,"COc1ccc(Cn2c(-c3nc4cc(C(=O)N5CCC[C@@H](N)C5)cc5c4n3CCO5)cc3cc(F)ccc32)cc1 [Compound 132, (R)-(3-aminopiperidin-1-yl)(2-(5-fluoro-1-(4-methoxybenzyl)-1H-indol-2-yl)-3,4-dihydro-5-oxa-1,2a-diazaacenaphthylen-7-yl)methanone]"
8,> 1,"N[C@@H]1CCCN(C(=O)c2cc3c4c(c2)nc(-c2cc5ccccc5n2CC(F)F)n4CCO3)C1 [Compound 133, (R)-(3-aminopiperidin-1-yl)(2-(1-(2,2-difluoroethyl)-1H-indol-2-yl)-3,4-dihydro-5-oxa-1,2a-diazaacenaphthylen-7-yl)methanone]"
9,0.1 to 1,"COCCn1c(-c2nc3cc(C(=O)N4CCC[C@@H](N)C4)cc4c3n2CCO4)cc2cc(F)ccc21 [Compound 134, (R)-(3-aminopiperidin-1-yl)(2-(5-fluoro-1-(2-methoxyethyl)-1H-indol-2-yl)-3,4-dihydro-5-oxa-1,2a-diazaacenaphthylen-7-yl)methanone]"
